The subject of test [1] is A431 cells (EGFR WT). The experiment in a line: A431 cell proliferation inhibition assay (CellTiter-Glo). The format is cell-based. As to conditions: Homo sapiens. How it is done: A431 Cell Proliferation Inhibition Assay
In the assay, the inhibition effect of the compounds on the proliferation of A431 cells was tested by adopting a CellTiter-Glo method, and the concentration IC50 of the compound for inhibiting half maximal growth of cells was obtained.
A431 cells, purchased from ATCC.
DMEM medium, fetal bovine serum (FBS), and Penicillin-Streptomycin, purchased from GIBCO.
(§1) Brigatinib, purchased from Selleck.
(§2) CellTiter-Glo reagent, purchased from Promega.
1) A431 cells were seeded in a 384-well plate at a density of 800 cells/well with 30 μL/well, and the plate was cultured in a cell incubator for 24 h (37° C., 5% CO2).
(§3) 2) Day 0: […] of gradiently-diluted compounds to be tested with a final concentration of DMSO of 0.1% was added to plate using Echo, and the plate was incubated in a cell incubator for 72 h (37° C., 5% CO2). […] of DMSO was added into each well in blank control group.
(§4) 3) Day 3: 30 μL Cell Titer-Glo reagent was added to each well, and the plate was in the dark under room temperature for 30 min.
(§5) 4) The chemiluminescent signal was detected by an Envision plate reader (PerkinElmer).
(§6) 5) Data analysis was performed using GraphPad Prism software to give the IC50 for compounds.
For orientation: In ATP-based viability assays light output follows the ATP content of the culture.

The test system of test [2] is Ba/F3_Del19/T790M/C797S cells. Kind of test: Ba/F3_Del19/T790M/C797S cell proliferation inhibition assay (CellTiter-Glo). The test is classed as cell-based. As to conditions: Mus musculus. As to the method: Ba/F3_Del19/T790M/C797S Cell Proliferation Inhibition Assay
In the assay, the inhibition effect of the compounds on the proliferation of Ba/F3_Del19/T790M/C797S cells was tested by adopting a CellTiter-Glo method, and the concentration IC50 of the compound for inhibiting half maximal growth of cells was obtained.
Ba/F3_Del19/T790M/C797S, purchased from Kyinno Biotechnology Co., Ltd. 1640 medium, fetal bovine serum (FBS), Penicillin-Streptomyces, and GlutaMAX-I Supplement, purchased from GIBCO.
as §1, §2
1) Ba/F3_Del19/T790M/C797S cells were seeded in a 384-well plate at a density of 700 cells/well with 30 μL/well.
as §3, §4, §5
Data analysis was performed using GraphPad Prism 6 software to give the IC50 for compounds.

Test [3] concerns Ba/F3_L858R/T790M/C797S cells. Kind of test: Ba/F3_L858R/T790M/C797S cell proliferation inhibition assay (CellTiter-Glo). As to conditions: Mus musculus. The format is cell-based. How it is done: Ba/F3_L858R/T790M/C797S Cell Proliferation Inhibition Assay
In the assay, the inhibition effect of the compounds on the proliferation of Ba/F3_L858R/T790M/C797S cells was tested by adopting a CellTiter-Glo method, and the concentration IC50 of the compound for inhibiting half maximal growth of cells was obtained.
Ba/F3_L858R/T790M/C797S cells were constructed by Pharmaron Beijing Co., Ltd.
1640 medium, fetal bovine serum (FBS), Penicillin-Streptomyces, and GlutaMAX-I Supplement, purchased from GIBCO.
as §1, §2
1) Ba/F3_L858R/T790M/C797S cells were seeded in a 384-well plate at a density of 700 cells/well with 30 μL/well.
as §3, §4, §5, §6

Test [4] addresses EGFR WT (wild type EGFR) (Homo sapiens (Human), UniProt P00533). The experiment in a line: In vitro enzymatic TR-FRET (HTRF KinEASE-TK) kinase assay, EGFR WT. The test is classed as biochemical. To be noted: kinase activity, TR-FRET; read-out: EGFR (WT) IC50. How it is done:
(I) In Vitro Enzymatic Experiment for EGFR WT and EGFR L858R/T790M/C797S
In the assay, the inhibition effect of the compound on the kinase activity of EGFR WT (wild type EGFR) and EGFR L858R/T790M/C797S was tested by adopting a time-resolved fluorescence resonance energy transfer (TR-FRET) method, and half maximal inhibitory concentration IC50 of the compound on the kinase activity of EGFR was obtained.
EGFR recombinase and EGFR L858R/T790M/C797S recombinase, purchased from Signalchem.
HTRF KinEASE-TK kit, purchased from Cisbio.
DTT, MnCl2, and MgCl2, purchased from Sigma.
ATP, purchased from Promega.
as §1
1) 1× working solution was prepared: 5 mM MgCl2; 1 mM DTT; 1 mM MnCl2 and 1× kinase buffer (in kit).
2) […] of gradiently-diluted compound was transferred to a 384-well plate using Echo 550 (Labcyte).
3) 5 μL of 2× EGFR WT or EGFR L858R/T790M/C797S recombinase solution was added to the 384-well plate, and the plate was incubated at room temperature for 10 min.
4) 5 μL of 2× TK-substrate-biotin substrate solution (containing ATP) was added to the 384-well plate, and the plate was incubated at room temperature for 40 min.
5) 5 μL of assay solution containing Sa-XL 665 HTRF and 5 μL of TK-antibody-Cryptatewas were added to the plate, and the plate was incubated at room temperature for 1 h.
6) The fluorescence signal values at 615 nm and 665 nm were measured for each well using an Envision microplate reader (PerkinElmer).
7) The ratio of fluorescence signal values at 665 nm and 615 nm was calculated for each well.
8) Data analysis was performed using GraphPad Prism software to give the IC50 for compounds.
On the technique in general: Time-resolved FRET reads energy transfer from a long-lived donor to a nearby acceptor.

Where [5] appears, read: A-431, cell proliferation, 72 h, CellTiter-Glo, read-out: A431 EGFR WT IC50.
The mark [6] stands for this setting: BaF3, cell proliferation, 72 h, CellTiter-Glo, read-out: Ba/F3 (Del19/T790M/C797S) IC50.
[7] abbreviates: BaF3, cell proliferation, 72 h, CellTiter-Glo, read-out: Ba/F3 (L858R/T790M/C797S) IC50.

From US20240034743A9, “TRICYCLIC COMPOUNDS AS EGFR INHIBITORS” (QILU PHARMACEUTICAL CO., LTD., priority 2020, published 2024) come the findings set out here.

Read-outs that look alike come from different tables or passages of the source.

Chain of EGFR WT (wild type EGFR) (P00533 25-1210): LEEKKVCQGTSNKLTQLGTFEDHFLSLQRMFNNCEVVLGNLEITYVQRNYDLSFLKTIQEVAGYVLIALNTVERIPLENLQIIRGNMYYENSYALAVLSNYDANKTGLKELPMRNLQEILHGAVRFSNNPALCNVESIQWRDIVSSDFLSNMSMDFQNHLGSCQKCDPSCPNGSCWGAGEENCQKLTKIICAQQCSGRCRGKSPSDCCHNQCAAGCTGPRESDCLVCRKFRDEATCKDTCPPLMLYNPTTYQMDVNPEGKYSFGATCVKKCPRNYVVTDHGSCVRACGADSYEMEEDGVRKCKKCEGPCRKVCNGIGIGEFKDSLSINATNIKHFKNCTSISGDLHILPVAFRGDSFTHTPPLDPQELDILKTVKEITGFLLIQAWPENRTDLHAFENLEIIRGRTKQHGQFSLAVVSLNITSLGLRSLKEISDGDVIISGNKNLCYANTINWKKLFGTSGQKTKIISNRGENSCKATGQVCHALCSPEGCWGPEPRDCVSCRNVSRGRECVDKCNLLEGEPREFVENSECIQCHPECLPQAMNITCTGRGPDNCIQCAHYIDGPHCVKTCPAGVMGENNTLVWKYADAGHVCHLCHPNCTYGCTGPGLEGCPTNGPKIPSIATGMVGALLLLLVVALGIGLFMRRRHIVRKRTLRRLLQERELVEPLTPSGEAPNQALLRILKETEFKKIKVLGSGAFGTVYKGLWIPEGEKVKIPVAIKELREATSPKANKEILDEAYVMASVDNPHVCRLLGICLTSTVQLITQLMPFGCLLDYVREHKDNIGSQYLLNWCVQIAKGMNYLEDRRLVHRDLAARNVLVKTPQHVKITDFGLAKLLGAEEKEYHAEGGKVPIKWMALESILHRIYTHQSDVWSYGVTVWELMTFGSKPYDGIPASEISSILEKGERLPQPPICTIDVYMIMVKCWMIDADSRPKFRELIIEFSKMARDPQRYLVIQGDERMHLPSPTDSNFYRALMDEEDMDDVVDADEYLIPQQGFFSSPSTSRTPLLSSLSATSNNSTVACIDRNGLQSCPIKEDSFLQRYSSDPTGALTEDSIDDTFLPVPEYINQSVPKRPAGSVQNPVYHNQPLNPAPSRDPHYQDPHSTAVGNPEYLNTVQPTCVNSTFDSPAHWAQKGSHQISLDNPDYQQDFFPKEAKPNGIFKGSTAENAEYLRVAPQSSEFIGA

In the case of `COc1cc2c(cc1Nc1ncc(Br)c(Nc3ccc4nccnc4c3P(C)(C)=O)n1)-c1cnn(C)c1CCN2C` [Compound 1], the figures for the IC50 in test [1] (setting [5]), in test [2] (setting [6]) and in test [3] (setting [7]) were 50 to 100 nM, less than 10 nM and less than 10 nM, respectively.
As for `COc1cc2c(cc1Nc1ncc(Br)c(Nc3ccccc3P(C)(C)=O)n1)-c1cnn(C)c1CCN2C` [Compound 2], the IC50 in test [4] was 1 to 10 nM; in test [1] (setting [5]) it was 50 to 100 nM; in test [2] (setting [6]), less than 10 nM; in test [3] (setting [7]), less than 10 nM.
`COc1cc2c(cc1Nc1ncc(Cl)c(Nc3ccc4nccnc4c3P(C)(C)=O)n1)-c1cnn(C)c1CCN2C` [Compound 13]: the results for the IC50 in test [1] (setting [5]), in test [2] (setting [6]) and in test [3] (setting [7]) were 50 to 100 nM, less than 10 nM and less than 10 nM, respectively.
On to `COc1cc2c(cc1Nc1ncc(Br)c(Nc3ccccc3NS(C)(=O)=O)n1)-c1cnn(C)c1CCN2C` [Compound 32], for which the IC50 in test [1] (setting [5]) was 100 to 1000 nM; in test [2] (setting [6]) it was less than 10 nM; in test [3] (setting [7]), less than 10 nM.
Consider `COc1cc2c(cc1Nc1ncc(Br)c(Nc3ccccc3P(C)(C)=O)n1)-c1cnn(C)c1CCC2N` (stereo not shown) [Compound 50], for which the IC50 lay within 100 to 1000 nM in test [1] (A-431, 72 h, read-out: A431 EGFR WT IC50(nM)); 10 to 50 nM in test [2] (BaF3, 72 h, read-out: Ba/F3 (Del19/T790M/C797S) IC50(nM)); 10 to 50 nM in test [3] (BaF3, 72 h, read-out: Ba/F3 (L858R/T790M/C797S) IC50(nM)).
Turning to `COc1cc2c(cc1Nc1ncc(Br)c(Nc3ccccc3P(C)(C)=O)n1)-c1cnn(C)c1CCN2C1CN(C)C1` [Compound 59], the IC50 lay in the range of 100 to 1000 nM in test [1] (setting [5]), 10 to 50 nM in test [2] (setting [6]) and 10 to 50 nM in test [3] (setting [7]).
For the compound `COc1cc2c(cc1Nc1ncc(Br)c(Nc3ccc4nccnc4c3P(C)(C)=O)n1)-c1cnn(C)c1CCN2C1CCN(C)CC1` [Compound 62], the IC50 in test [1] (setting [5]) is 10 to 50 nM; in test [2] (setting [6]) it was less than 10 nM; in test [3] (setting [7]) it was less than 10 nM.
Regarding `COc1cc2c(cc1Nc1ncc(Br)c(Nc3ccc4nccnc4c3P(C)(C)=O)n1)-c1cnn(C)c1CCN2C1CN(C(C)C)C1` [Compound 63], the IC50 was 10 to 50 nM in test [1] (setting [5]), less than 10 nM in test [2] (setting [6]) and less than 10 nM in test [3] (setting [7]).
For `COc1cc2c(cc1Nc1ncc(Br)c(Nc3ccccc3P(C)(C)=O)n1)-c1cnn(C)c1CCN2C1COC1` [Compound 64], the IC50 in test [1] (setting [5]) is 100 to 1000 nM; in test [2] (setting [6]) it was less than 10 nM; in test [3] (setting [7]) it was 10 to 50 nM.
As to `COc1cc2c(cc1Nc1ncc(Br)c(Nc3ccc4nccnc4c3P(C)(C)=O)n1)-c1cnn(C)c1CCN2C1CCN(C)CC1F` (stereo not shown) [Compound 67], the IC50 in test [1] (setting [5]) is 50 to 100 nM; in test [2] (setting [6]) it was less than 10 nM; in test [3] (setting [7]) it was less than 10 nM.
For `COc1cc2c(cc1Nc1ncc(Br)c(Nc3ccccc3P(C)(C)=O)n1)-c1cnn(C)c1CCN2C1CN(CCF)C1` [Compound 69], the IC50 is 100 to 1000 nM in test [1] (setting [5]), less than 10 nM in test [2] (setting [6]) and less than 10 nM in test [3] (setting [7]).
`COc1cc2c(cc1Nc1ncc(Br)c(Nc3ccc4nccnc4c3P(C)(C)=O)n1)-c1cnn(C)c1CCN2C1CN(CC2CC2)C1` [Compound 70]: the IC50 in test [1] (setting [5]) is 10 to 50 nM; in test [2] (setting [6]) it was less than 10 nM; in test [3] (setting [7]) it was less than 10 nM.
